{
  "source": "paper PMC4426345",
  "about": "(ACS Infectious Diseases, 2014)",
  "key": {"replicating Mtb H37Rv": {"test_system": "replicating Mtb H37Rv", "type": "cell-based", "conditions": "Mycobacterium tuberculosis, read-out: MIC in MABA"}, "[1]": {"test_system": "M. tuberculosis H37Rv::pCHERRY3", "type": "cell-based, Mycobacterium tuberculosis", "conditions": "OD and fluorescence readouts, 5 d, listed as Ambien, 1"}},
  "data": [
    {"smiles": "Cc1ccc(-c2nc3ccc(C)cn3c2CC(=O)N(C)C)cc1", "note": "[Compound 1, N,N-dimethyl-2-(6-methyl-2-p-tolyl-imidazo[1,2-a]pyridin-3-yl)acetamide]", "values": [
      {"measurement": "MIC", "setting": "replicating Mtb H37Rv", "value": "49 to 53", "unit": "µM"},
      {"measurement": "MIC Mtb H37Rv 7H9-Tw-OADC", "setting": "[1]", "value": 10, "unit": "µM"}
    ]}
  ]
}
